Structures are written as SMILES.

This series concerns EA.hy926 endothelial cells. Put plainly: Angiogenesis tube formation assay. It counts as cell-based. The protocol:
Expression of PEDF-signaling associated genes from PC-3 cells treated with 50 μM C3, compared to DMSO control and normalized to GAPDH (n=3, mean±SEM). A Holm-Sidak multiple t test was used for statistical analysis (*p<0.05,**O<0.01, ***<0.001). […] Average tube count for 0.1% DMSO, 0.5% DMSO, and 1, 10 and 50 μM treatment with C3 (n=7, mean±SEM). 1 and 10 μM C3 were compared with respective 0.5% DMSO (unpaired two-tailed t test, ****<0.0001). 50 μM C3 was compared with respective 0.1% DMSO (unpaired two-tailed t test p<0.0001).
Wound Healing Assay. PC-3 cells were seeded in 6 well plates at 3×10^5 cells per well in complete media until the cells reached confluency. Three horizontal and three vertical scratches were made in the confluent monolayers using a standard 200 μL pipette tip and cellular debris were removed by washing with 1×DPBS three times. 1×RPMI-1640 supplemented with C3 or DMSO was added and cells were incubated for 48 hours as described previously. […] Images were uploaded and analyzed for scratch geometry using the tscratch program (96). First, global thresholding was performed, then individual images were manually inspected for single image threshold adjustment and scratch geometries were quantified. […] The samples were analyzed using the Dionex UltiMate 3000 RSLC Nano System coupled to the Q Exactive™ HF Hybrid Quadrupole-Orbitrap MS (Thermo Scientific). […]

For the compound `O=C(c1cc(F)cc2c1OCOC2)N1CCN(C2c3ccccc3-c3ccccc32)CC1` [Compound C3, [4-(9h-fluoren-9-yl)piperazino](6-fluoro-4h-1,3-benzodioxin-8-yl)methanone], the calcein uptake entry is “did not alter calcein uptake”.

Values taken from patent US11022604B2, “Dock derived compound against laminin receptor (37 LR) and uses thereof” (Purdue Research Foundation, priority 2017, dated 2021).
